{
  "source": "ChEMBL document CHEMBL4808186",
  "about": "“Structure-Based Discovery of Pyrimidine Aminobenzene Derivatives as Potent Oral Reversal Agents against P-gp- and BCRP-Mediated Multidrug Resistance” (J Med Chem, 2021)",
  "key": {"K562": {"test_system": "K562", "assay": "Cytotoxicity against human K562 cells incubated for 48 hrs by MTT assay", "assay_type": "functional, cell-based", "settings": "K562, 48 h"}, "K562/A02 [1]": {"test_system": "K562/A02", "assay": "Cytotoxicity against P-gp overexpressing human K562/A02 cells incubated for 48 hrs by MTT assay", "assay_type": "functional, cell-based", "settings": "K562/A02, 48 h, read-out: IC50"}, "[2]": {"assay": "n-Octanol/water partition coefficient, logP of the compound by UHPLC analysis", "assay_type": "physicochemical"}, "[3]": {"molecular_target": "T1, ATP-dependent translocase ABCB1 (Homo sapiens, UniProt P08183)", "T1 sequence (P08183 whole entry)": "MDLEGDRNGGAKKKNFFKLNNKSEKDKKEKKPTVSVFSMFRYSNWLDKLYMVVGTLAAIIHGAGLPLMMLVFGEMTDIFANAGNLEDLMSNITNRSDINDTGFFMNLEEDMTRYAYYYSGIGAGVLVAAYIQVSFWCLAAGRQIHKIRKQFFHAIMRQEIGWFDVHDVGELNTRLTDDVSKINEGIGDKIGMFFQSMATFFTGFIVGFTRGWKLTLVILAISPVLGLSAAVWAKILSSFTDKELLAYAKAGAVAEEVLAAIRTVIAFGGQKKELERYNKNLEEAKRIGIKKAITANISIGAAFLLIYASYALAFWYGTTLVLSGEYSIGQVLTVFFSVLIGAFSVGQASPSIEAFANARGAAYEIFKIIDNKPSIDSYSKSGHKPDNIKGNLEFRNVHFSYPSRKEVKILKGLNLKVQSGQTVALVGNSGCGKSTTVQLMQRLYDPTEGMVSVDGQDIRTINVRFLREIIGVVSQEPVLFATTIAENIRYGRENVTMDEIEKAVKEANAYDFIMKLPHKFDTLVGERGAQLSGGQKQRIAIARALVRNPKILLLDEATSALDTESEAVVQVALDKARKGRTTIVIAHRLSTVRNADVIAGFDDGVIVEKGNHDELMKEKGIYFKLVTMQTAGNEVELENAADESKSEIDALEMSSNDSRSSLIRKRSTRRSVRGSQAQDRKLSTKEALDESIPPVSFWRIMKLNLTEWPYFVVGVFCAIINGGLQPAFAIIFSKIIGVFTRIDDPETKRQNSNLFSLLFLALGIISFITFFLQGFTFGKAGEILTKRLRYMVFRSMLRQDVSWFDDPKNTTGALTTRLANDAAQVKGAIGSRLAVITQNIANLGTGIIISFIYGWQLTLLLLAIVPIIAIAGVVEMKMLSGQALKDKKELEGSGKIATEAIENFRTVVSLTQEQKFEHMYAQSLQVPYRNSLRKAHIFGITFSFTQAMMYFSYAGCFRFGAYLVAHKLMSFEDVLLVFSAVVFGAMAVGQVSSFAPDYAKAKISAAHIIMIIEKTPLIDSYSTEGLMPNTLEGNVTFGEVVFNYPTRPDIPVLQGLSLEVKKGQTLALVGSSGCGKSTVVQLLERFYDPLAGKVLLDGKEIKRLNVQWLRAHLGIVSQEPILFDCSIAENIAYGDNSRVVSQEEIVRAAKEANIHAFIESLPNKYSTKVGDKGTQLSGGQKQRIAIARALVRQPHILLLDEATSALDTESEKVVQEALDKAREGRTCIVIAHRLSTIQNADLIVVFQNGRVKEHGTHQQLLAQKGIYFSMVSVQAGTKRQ", "assay": "Inhibition of P-gp-mediated multidrug resistance in human K562/A02 cells assessed as Adriamycin accumulation at 1 to 10 uM pretreated 1 hr followed by treated with adriamycin measured after 180 mins by fluorescence microscopy", "assay_type": "cell-based", "settings": "k562/a02, 4 h, dose 1-10 µM, time 240 min"}, "MDCK-II [4]": {"test_system": "MDCK-II", "assay": "Inhibition of BCRP-mediated multidrug resistance in MDCK-II cells assessed as mitoxantrone accumulation […] pretreated 1 hr followed by treated with mitoxantrone measured after 180 mins by fluorescence microscopy", "assay_type": "cell-based", "settings": "Canis lupus familiaris, time 240.0 min"}, "[5]": {"molecular_target": "T1, ATP-dependent translocase ABCB1", "assay": "Inhibition of P-gp-mediated multidrug resistance in human K562/A02 cells assessed as Adriamycin accumulation pretreated 1 hr followed by treated with adriamycin measured after 180 mins by flow cytometry", "assay_type": "cell-based", "settings": "k562/a02, 4 h, time 240 min"}, "MDCK-II [6]": {"test_system": "MDCK-II", "assay": "Inhibition of BCRP-mediated multidrug resistance in MDCK-II cells assessed as mitoxantrone accumulation at 0.1 to 5 uM pretreated 1 hr followed by treated with mitoxantrone measured after 180 mins by flow cytometry", "assay_type": "cell-based", "settings": "Canis lupus familiaris, dose 0.1-5 µM, time 240.0 min"}, "[7]": {"molecular_target": "T1, ATP-dependent translocase ABCB1", "assay": "Inhibition of P-gp-mediated multidrug resistance in human K562/A02 cells assessed as suppression of Rh123 efflux at 10 uM treated after 90 mins of Rh123 treatment measure up to 120 mins by flow cytometry", "assay_type": "cell-based", "settings": "k562/a02, 10 µM"}, "K562/A02 [8]": {"test_system": "K562/A02", "assay": "Potentiation of adriamycin-induced apoptosis in human K562/A02 cells assessed as viable cells at 0.5 uM incubated for 48 hrs in presence of 10 uM adriamycin by Annexin-V/FITC-based flow cytometry (reference value: 96.5%)", "assay_type": "functional", "settings": "read-out: Activity"}, "K562/A02 [9]": {"test_system": "K562/A02", "assay": "Potentiation of adriamycin-induced apoptosis in human K562/A02 cells assessed as early apoptotic cells at 0.5 uM incubated for 48 hrs in presence of 10 uM adriamycin by Annexin-V/FITC-based flow cytometry (reference value: 2.9%)", "assay_type": "functional"}, "K562/A02 [10]": {"test_system": "K562/A02", "assay": "Potentiation of adriamycin-induced apoptosis in human K562/A02 cells assessed as late apoptotic cells at 0.5 uM incubated for 48 hrs in presence of 10 uM adriamycin by Annexin-V/FITC-based flow cytometry (reference value: 0.4%)", "assay_type": "functional"}, "K562/A02 [11]": {"test_system": "K562/A02", "assay": "Potentiation of adriamycin-induced apoptosis in human K562/A02 cells assessed as necrotic cells at 0.5 uM incubated for 48 hrs in presence of 10 uM adriamycin by Annexin-V/FITC-based flow cytometry (reference value: 0.3%)", "assay_type": "functional"}, "K562/A02 [12]": {"test_system": "K562/A02", "assay": "Potentiation of adriamycin-induced apoptosis in human K562/A02 cells assessed as viable cells at 5 uM incubated for 48 hrs in presence of 10 uM adriamycin by Annexin-V/FITC-based flow cytometry (reference value: 96.5%)", "assay_type": "functional", "settings": "read-out: Activity"}, "K562/A02 [13]": {"test_system": "K562/A02", "assay": "Potentiation of adriamycin-induced apoptosis in human K562/A02 cells assessed as early apoptotic cells at 5 uM incubated for 48 hrs in presence of 10 uM adriamycin by Annexin-V/FITC-based flow cytometry (reference value: 2.9%)", "assay_type": "functional"}, "K562/A02 [14]": {"test_system": "K562/A02", "assay": "Potentiation of adriamycin-induced apoptosis in human K562/A02 cells assessed as late apoptotic cells at 5 uM incubated for 48 hrs in presence of 10 uM adriamycin by Annexin-V/FITC-based flow cytometry (reference value: 0.4%)", "assay_type": "functional"}, "K562/A02 [15]": {"test_system": "K562/A02", "assay": "Potentiation of adriamycin-induced apoptosis in human K562/A02 cells assessed as necrotic cells at 5 uM incubated for 48 hrs in presence of 10 uM adriamycin by Annexin-V/FITC-based flow cytometry (reference value: 0.3%)", "assay_type": "functional"}, "K562/A02 [16]": {"test_system": "K562/A02", "assay": "Potentiation of adriamycin-induced apoptosis in human K562/A02 cells assessed as viable cells at 10 uM incubated for 48 hrs in presence of 10 uM adriamycin by Annexin-V/FITC-based flow cytometry (reference value: 96.5%)", "assay_type": "functional", "settings": "read-out: Activity"}, "K562/A02 [17]": {"test_system": "K562/A02", "assay": "Potentiation of adriamycin-induced apoptosis in human K562/A02 cells assessed as early apoptotic cells at 10 uM incubated for 48 hrs in presence of 10 uM adriamycin by Annexin-V/FITC-based flow cytometry (reference value: 2.9%)", "assay_type": "functional"}, "K562/A02 [18]": {"test_system": "K562/A02", "assay": "Potentiation of adriamycin-induced apoptosis in human K562/A02 cells assessed as late apoptotic cells at 10 uM incubated for 48 hrs in presence of 10 uM adriamycin by Annexin-V/FITC-based flow cytometry (reference value: 0.4%)", "assay_type": "functional"}, "K562/A02 [19]": {"test_system": "K562/A02", "assay": "Potentiation of adriamycin-induced apoptosis in human K562/A02 cells assessed as necrotic cells at 10 uM incubated for 48 hrs in presence of 10 uM adriamycin by Annexin-V/FITC-based flow cytometry (reference value: 0.3%)", "assay_type": "functional"}, "K562/A02 [20]": {"test_system": "K562/A02", "assay": "Effect on P-gp expression in human K562/A02 cells at 1 to 10 uM incubated for 48 hrs by Western blot analysis", "assay_type": "functional, cell-based", "settings": "dose 1-10 µM"}, "MDCK-II [21]": {"test_system": "MDCK-II", "assay": "Effect on BCRP expression in MDCK-II cells at 1 to 10 uM incubated for 48 hrs by Western blot analysis", "assay_type": "functional, cell-based", "settings": "Canis lupus familiaris, dose 1-10 µM"}, "K562/A02 [22]": {"test_system": "K562/A02", "assay": "Antitumor activity against human K562/A02 cells xenografted in BALB/c mouse assessed as reduction in tumor size at 4 mg/kg, iv once every 2 days for 14 days in presence of 2 mg/kg adriamycin", "assay_type": "functional, organism-based", "settings": "time 2.0 day"}, "K562/A02 [23]": {"test_system": "K562/A02", "assay": "Antitumor activity against human K562/A02 cells xenografted in BALB/c mouse assessed as reduction in tumor volume at 4 mg/kg, iv once every 2 days for 14 days in presence of 2 mg/kg adriamycin", "assay_type": "functional, organism-based", "settings": "time 2.0 day"}, "K562/A02 [24]": {"test_system": "K562/A02", "assay": "Antitumor activity against human K562/A02 cells xenografted in BALB/c mouse assessed as reduction in tumor weight at 4 mg/kg, iv once every 2 days for 14 days in presence of 2 mg/kg adriamycin", "assay_type": "functional, organism-based", "settings": "time 2.0 day"}, "K562/A02 [25]": {"test_system": "K562/A02", "assay": "Antitumor activity against human K562/A02 cells xenografted in BALB/c mouse assessed as degeneration and necrosis of tumor tissue at 4 mg/kg, iv single dose in presence of 2 mg/kg adriamycin by HE staining", "assay_type": "functional, organism-based"}, "[26]": {"assay": "Toxicity in BALB/c mouse xenografted with human K562/A02 cells assessed as degeneration and necrosis of liver tissue at 4 mg/kg, iv once every 2 days for 14 days in presence of 2 mg/kg adriamycin by HE staining", "assay_type": "organism-based", "settings": "in vivo, 48 h, time 2 day"}, "[27]": {"assay": "Toxicity in BALB/c mouse xenografted with human K562/A02 cells assessed as degeneration and necrosis of kidney tissue at 4 mg/kg, iv once every 2 days for 14 days in presence of 2 mg/kg adriamycin by HE staining", "assay_type": "organism-based", "settings": "in vivo, 48 h, time 2 day"}, "MDCK-II [28]": {"test_system": "MDCK-II", "assay": "cells", "settings": "Canis lupus familiaris, 48 h", "description": "Cytotoxicity against MDCK-II cells incubated for 48 hrs by MTT assay"}, "MDCK-II [29]": {"test_system": "MDCK-II", "assay": "cells", "settings": "Canis lupus familiaris, 48 h", "remark": "listed apart in the source", "description": "Cytotoxicity against BCRP-overexpressing MDCK-II cells incubated for 48 hrs by MTT assay"}},
  "note": "Calls of active or inactive are those of the source. No cut-off for these calls is given here.",
  "data": [
    {"smiles": "COc1cc2c(cc1OC)CN(CCNC(=O)c1ccc(C)c(Nc3nccc(-c4ccco4)n3)c1)CC2", "values": [
      {"measurement": "IC50", "setting": "K562", "value": "> 100", "unit": "µM"},
      {"measurement": "IC50", "setting": "K562/A02 [1]", "value": "> 100", "unit": "µM"},
      {"measurement": "logP", "setting": "[2]", "value": 2.13},
      {"measurement": "Activity", "setting": "[3]", "value": "Active"},
      {"measurement": "Activity", "setting": "MDCK-II [4]", "value": "Active"},
      {"measurement": "Activity", "setting": "[5]", "value": "Dose-Dependent Effect"},
      {"measurement": "Activity", "setting": "MDCK-II [6]", "value": "Active"},
      {"measurement": "Activity", "setting": "[7]", "value": "Active"},
      {"measurement": "viability at 0.5 µM", "setting": "K562/A02 [8]", "value": 84.8, "unit": "%"},
      {"measurement": "Activity", "setting": "K562/A02 [9]", "value": 10.9, "unit": "%"},
      {"measurement": "Activity", "setting": "K562/A02 [10]", "value": 3.2, "unit": "%"},
      {"measurement": "Activity", "setting": "K562/A02 [11]", "value": 1.1, "unit": "%"},
      {"measurement": "viability at 5 µM", "setting": "K562/A02 [12]", "value": 76.2, "unit": "%"},
      {"measurement": "Activity", "setting": "K562/A02 [13]", "value": 12.3, "unit": "%"},
      {"measurement": "Activity", "setting": "K562/A02 [14]", "value": 9.2, "unit": "%"},
      {"measurement": "Activity", "setting": "K562/A02 [15]", "value": 2.4, "unit": "%"},
      {"measurement": "viability at 10 µM", "setting": "K562/A02 [16]", "value": 68.3, "unit": "%"},
      {"measurement": "Activity", "setting": "K562/A02 [17]", "value": 19.3, "unit": "%"},
      {"measurement": "Activity", "setting": "K562/A02 [18]", "value": 9.8, "unit": "%"},
      {"measurement": "Activity", "setting": "K562/A02 [19]", "value": 2.5, "unit": "%"},
      {"measurement": "Activity", "setting": "K562/A02 [20]", "value": "inactive"},
      {"measurement": "Activity", "setting": "MDCK-II [21]", "value": "inactive"},
      {"measurement": "Activity", "setting": "K562/A02 [22]", "value": "Active"},
      {"measurement": "Activity", "setting": "K562/A02 [23]", "value": "Active"},
      {"measurement": "Activity", "setting": "K562/A02 [24]", "value": "Active"},
      {"measurement": "Activity", "setting": "K562/A02 [25]", "value": "Active"},
      {"measurement": "Activity", "setting": "[26]", "value": "Non-Toxic"},
      {"measurement": "Activity", "setting": "[27]", "value": "Non-Toxic"},
      {"measurement": "IC50", "setting": "MDCK-II [28]", "value": "> 100", "unit": "µM"},
      {"measurement": "IC50", "setting": "MDCK-II [29]", "value": "> 100", "unit": "µM"}
    ]}
  ]
}
